For 66 compounds, IC50 results are on record in patent US9932325B2 (Denali Therapeutics Inc., priority 2015, dated 2018).

The assay has as its target LRRK2 G2019S enzyme (Homo sapiens (Human), UniProt Q5S007, G2019S). The assay can be described thus: LRRK2 G2019S TR-FRET biochemical assay (LRRKtide substrate). Particulars: 134 μM ATP. How it is done:
Detection Reaction Conditions • 1× TR-FRET dilution buffer • 10 mM EDTA • 2 nM antibody • 23° C. reaction temperature • 10 μL total reaction volume
Compounds were prepared by initially diluting to 1 mM with DMSO. 35 μL of reference compound solution, 35 μL of test compound solution, and 35 μL HPE were successively added to the source plate (384-well assay plate, Labcyte). The plates were centrifuged at 2500 rpm for 1 minute and sealed in foil. […] The assay plate was centrifuged at 2500 rpm for 1 minute, and sealed with foil.
To perform the enzyme reaction, 5 μL of LRRKtide substrate and kinase mixture in assay buffer was added to all wells of the assay plate. The plate was centrifuged to concentrate the mixture at the bottom of the wells. The assay plate was incubated at 23° C. for 20 minutes. Following incubation, 5 μL of 2× ATP in assay buffer was added to each well, and plates were centrifuged to concentrate the mixture at the bottom of the wells. The plate was incubated at 23° C. for 60 minutes.
To perform the detection of the reaction, EDTA completely mixed in TR-FRET dilution buffer was added to antibody reagent. 10 μL of detection reagent was added to all wells of each well of the assay plate and the plate was centrifuged to concentrate the mixture at the bottom of the wells. The plate was then incubated at 23° C. for 60 minutes.

Where “and” joins values, the source holds several entries; their conditions need not be identical. Equal entries are not always repeated. Bounds are passed on as bounds.

Sequence of LRRK2 G2019S enzyme (Q5S007 whole entry G2019S): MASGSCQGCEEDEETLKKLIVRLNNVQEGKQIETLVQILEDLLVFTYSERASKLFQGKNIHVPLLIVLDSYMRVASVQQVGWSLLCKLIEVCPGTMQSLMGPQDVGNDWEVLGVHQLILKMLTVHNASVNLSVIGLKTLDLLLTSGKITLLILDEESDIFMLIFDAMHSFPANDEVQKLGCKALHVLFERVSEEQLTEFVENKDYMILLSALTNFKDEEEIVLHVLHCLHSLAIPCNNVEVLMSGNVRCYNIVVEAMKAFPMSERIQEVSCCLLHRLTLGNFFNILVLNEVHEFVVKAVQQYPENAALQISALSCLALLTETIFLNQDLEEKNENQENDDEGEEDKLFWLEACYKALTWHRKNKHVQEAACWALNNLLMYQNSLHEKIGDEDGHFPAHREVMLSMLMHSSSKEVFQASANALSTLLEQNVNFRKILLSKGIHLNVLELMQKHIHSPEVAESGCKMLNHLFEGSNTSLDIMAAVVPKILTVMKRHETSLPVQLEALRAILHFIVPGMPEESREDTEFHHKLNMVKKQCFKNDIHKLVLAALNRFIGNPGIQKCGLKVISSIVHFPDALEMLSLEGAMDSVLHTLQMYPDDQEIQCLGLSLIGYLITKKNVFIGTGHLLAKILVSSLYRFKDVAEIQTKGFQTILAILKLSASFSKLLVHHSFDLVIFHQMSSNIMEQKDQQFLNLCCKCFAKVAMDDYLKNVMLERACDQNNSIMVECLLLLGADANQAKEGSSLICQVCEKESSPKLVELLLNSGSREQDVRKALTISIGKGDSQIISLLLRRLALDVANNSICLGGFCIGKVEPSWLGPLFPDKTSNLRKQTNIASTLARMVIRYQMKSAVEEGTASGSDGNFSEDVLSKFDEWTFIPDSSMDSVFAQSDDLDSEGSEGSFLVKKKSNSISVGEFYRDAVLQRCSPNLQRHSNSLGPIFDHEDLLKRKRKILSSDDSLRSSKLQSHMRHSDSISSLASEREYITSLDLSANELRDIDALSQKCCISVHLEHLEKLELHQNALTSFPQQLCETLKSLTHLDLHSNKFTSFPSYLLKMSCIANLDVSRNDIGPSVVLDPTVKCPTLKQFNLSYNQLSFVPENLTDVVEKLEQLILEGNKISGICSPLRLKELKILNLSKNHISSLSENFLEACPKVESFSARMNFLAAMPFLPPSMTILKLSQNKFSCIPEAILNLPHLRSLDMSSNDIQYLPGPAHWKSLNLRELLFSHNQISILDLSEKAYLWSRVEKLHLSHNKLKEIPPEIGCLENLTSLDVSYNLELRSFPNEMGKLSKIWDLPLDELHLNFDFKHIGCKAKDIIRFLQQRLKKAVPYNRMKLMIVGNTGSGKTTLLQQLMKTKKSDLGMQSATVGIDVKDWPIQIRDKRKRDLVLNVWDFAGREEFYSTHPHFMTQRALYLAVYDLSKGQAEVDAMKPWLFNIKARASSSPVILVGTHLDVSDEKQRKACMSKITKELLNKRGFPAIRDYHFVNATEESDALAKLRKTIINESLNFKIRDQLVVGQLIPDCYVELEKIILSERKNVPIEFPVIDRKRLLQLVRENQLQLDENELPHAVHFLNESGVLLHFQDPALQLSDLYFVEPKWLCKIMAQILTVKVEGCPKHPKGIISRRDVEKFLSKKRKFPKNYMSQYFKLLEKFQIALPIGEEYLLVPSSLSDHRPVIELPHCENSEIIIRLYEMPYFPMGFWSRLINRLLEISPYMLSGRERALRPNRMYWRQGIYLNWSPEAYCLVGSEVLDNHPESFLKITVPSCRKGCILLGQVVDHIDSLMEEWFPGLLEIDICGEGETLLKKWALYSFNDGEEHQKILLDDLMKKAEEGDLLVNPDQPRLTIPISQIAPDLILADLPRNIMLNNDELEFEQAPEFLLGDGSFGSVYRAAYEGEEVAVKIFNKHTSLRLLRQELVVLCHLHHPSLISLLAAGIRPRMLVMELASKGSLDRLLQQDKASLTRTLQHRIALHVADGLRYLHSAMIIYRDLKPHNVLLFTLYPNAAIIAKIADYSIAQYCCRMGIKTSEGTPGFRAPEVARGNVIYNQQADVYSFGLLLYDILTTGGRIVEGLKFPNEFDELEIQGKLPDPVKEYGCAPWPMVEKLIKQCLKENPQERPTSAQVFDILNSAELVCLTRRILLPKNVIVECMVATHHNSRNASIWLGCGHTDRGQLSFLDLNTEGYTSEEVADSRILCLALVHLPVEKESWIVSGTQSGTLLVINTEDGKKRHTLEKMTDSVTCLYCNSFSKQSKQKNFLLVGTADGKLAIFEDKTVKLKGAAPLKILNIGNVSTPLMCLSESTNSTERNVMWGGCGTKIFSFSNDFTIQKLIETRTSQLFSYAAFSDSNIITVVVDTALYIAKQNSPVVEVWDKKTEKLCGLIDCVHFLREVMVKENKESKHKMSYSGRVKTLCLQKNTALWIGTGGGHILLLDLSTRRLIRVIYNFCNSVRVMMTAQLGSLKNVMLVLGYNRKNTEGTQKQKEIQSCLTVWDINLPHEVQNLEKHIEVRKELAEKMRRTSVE

With `CCNc1nc(Nc2cn(C3(CF)CCOC3=O)nc2C)ncc1C(F)(F)F` (single isomer, unassigned) [Compound 217], the IC50 is under 30 nM.
To `CNc1nc(Nc2cnn(C3CC4CCC(C3)N4C)c2C)ncc1C(F)(F)F` (stereo not drawn) [Compound 1] belongs under 30 nM; to `CNc1nc(Nc2cn(C3CC4CCC(C3)N4C)nc2C)ncc1C(F)(F)F` (stereo not drawn) [Compound 2], over 60 nM; to `CNc1nc(Nc2cn(C3C[C@@H]4C[C@@H]4C3)nc2C)ncc1C(F)(F)F` (stereo partly drawn) [Compound 3], under 30 nM.
To `CNc1nc(Nc2cnn(C3C[C@@H]4C[C@@H]4C3)c2C)ncc1C(F)(F)F` (stereo partly drawn) [Compound 4] belongs under 30 nM; to `Cc1nn(C(C)(C)C#N)cc1Nc1ncc(C(F)(F)F)c(NC2C3CC2C3)n1` (stereo not drawn) [Compound 5], under 30 nM; to `CNc1nc(Nc2cn(CC34CC(C#N)(C3)C4)nc2C)ncc1C(F)(F)F` [Compound 6], over 60 nM.
`CNc1nc(Nc2cnn(CC34CC(C#N)(C3)C4)c2C)ncc1C(F)(F)F` [Compound 7] registered an IC50 of under 30 nM.
To `CNc1nc(Nc2cnn3c2CC2(CC2)C3)ncc1C(F)(F)F` [Compound 8] belongs under 30 nM.
To `CNc1nc(Nc2cnn(C3C[C@@H]4[C@H](C3)C4(F)F)c2Cl)ncc1C(F)(F)F` (stereo partly drawn) [Compound 9] belongs under 30 nM; to `CNc1nc(Nc2cn(C3C[C@@H]4[C@H](C3)C4(F)F)nc2Cl)ncc1C(F)(F)F` (stereo partly drawn) [Compound 10], over 60 nM; to `CNc1nc(Nc2cnn(C3C[C@@H]4[C@H](C3)C4(F)F)c2C)ncc1C(F)(F)F` (stereo partly drawn) [Compound 11], under 30 nM.
To `CNc1nc(Nc2cn(C3C[C@@H]4[C@H](C3)C4(F)F)nc2C)ncc1C(F)(F)F` (stereo partly drawn) [Compound 12] belongs under 30 nM; to `CNc1nc(Nc2cnn(C3CC4(COC4)C3)c2Cl)ncc1C(F)(F)F` [Compound 13], under 30 nM; to `CNc1nc(Nc2cn(C(C)(C)c3ncn(C)n3)nc2C)ncc1C(F)(F)F` [Compound 14], under 30 nM.
With `CNc1nc(Nc2cn(C(C)(C)c3ccn(C)n3)nc2C)ncc1C(F)(F)F` [Compound 15], the IC50 was under 30 nM.
To `CNc1nc(Nc2cnn3c2CC2(COC2)C3)ncc1C(F)(F)F` [Compound 16] belongs under 30 nM; to `CNc1nc(Nc2cnn3c2OCC2(CC2)C3)ncc1C(F)(F)F` [Compound 17], under 30 nM; to `CCNc1nc(Nc2cn(C(C)(C)c3ccn(C)n3)nc2C)ncc1C(F)(F)F` [Compound 18], under 30 nM.
In turn, `Cc1nn(C(C)(C)C#N)cc1Nc1nc2c(c(C3CC3)n1)C1(CC1)CN2` [Compound 19] came in with an IC50 of under 30 nM.
To `CCNc1nc(Nc2cnn3c2CC2(COC2)C3)ncc1C(F)(F)F` [Compound 20] belongs under 30 nM; to `Cc1c(Nc2ncc(C(F)(F)F)c(NC3CC3)n2)cnn1[C@H]1C[C@H](C#N)C1` [Compound 21], under 30 nM; to `[2H]C([2H])([2H])N1CCC(n2cc(Nc3ncc(C(F)(F)F)c(NCC)n3)c(C)n2)(C([2H])([2H])[2H])C1=O` (stereo not drawn) [Compound 22], under 30 nM.
To `[2H]C([2H])([2H])N1CCC(n2cc(Nc3ncc(C(F)(F)F)c(NCC)n3)c(C)n2)C1=O` (stereo not drawn) [Compound 25] belongs under 30 nM; to `CCNc1nc(Nc2cnn([C@H]3C[C@@H](C#N)C3)c2C)ncc1C(F)(F)F` [Compound 27], < 30 nM and 3.41 nM.
For `CCNc1nc(Nc2cnn(C3CCC3)c2C#N)ncc1C(F)(F)F` [Compound 32], the IC50 was under 30 nM.
To `[2H]C([2H])([2H])n1cnc(C(C)(C)n2cc(Nc3ncc(Br)c(OC)n3)c(C)n2)n1` [Compound 33] belongs under 30 nM; to `CCNc1nc(Nc2cn([C@H]3C[C@H](C#N)C3)nc2C)ncc1C(F)(F)F` [Compound 35A], under 30 nM.
To `CCNc1nc(Nc2cn([C@H]3C[C@@H](C#N)C3)nc2C)ncc1C(F)(F)F` [Compound 35B] belongs under 30 nM; to `COc1nc(Nc2cnn(C3CCC3)c2C#N)ncc1Br` [Compound 37], under 30 nM.
As for `Cc1nn(C(C)(C)C#N)cc1Nc1ncc(C(F)(F)F)c(NC2CC2)n1` [Compound 38], the IC50 is under 30 nM.
To `Cc1nn(C(C)(C)C#N)cc1Nc1ncc(C(F)(F)F)c(N[C@H]2C[C@H]2F)n1` [Compound 39A] belongs under 30 nM; to `[2H]C([2H])([2H])Nc1nc(Nc2cn(C(C#N)(C([2H])([2H])[2H])C([2H])([2H])[2H])nc2C([2H])([2H])[2H])ncc1C(F)(F)F` [Compound 40], under 30 nM; to `CNc1nc(Nc2cn(C(C)(C)C#N)nc2C)ncc1Br` [Compound 42], under 30 nM.
To `CCNc1nc(Nc2cn(C(C)(C)C#N)nc2C)ncc1Br` [Compound 43] belongs under 30 nM; to `[2H]C([2H])([2H])c1nn(C(C#N)(C([2H])([2H])[2H])C([2H])([2H])[2H])cc1Nc1ncc(C(F)(F)F)c(NCC)n1` [Compound 44], under 30 nM; to `[2H]C([2H])([2H])c1nn(C(C#N)(C([2H])([2H])[2H])C([2H])([2H])[2H])cc1Nc1ncc(C(F)(F)F)c(NC)n1` [Compound 45], under 30 nM.
In turn, `[2H]C([2H])([2H])c1nn(C(C#N)(C([2H])([2H])[2H])C([2H])([2H])[2H])cc1Nc1ncc(C(F)(F)F)c(NCC(F)F)n1` [Compound 46] returned an IC50 of under 30 nM.
Turning to `[2H]C([2H])([2H])c1nn(C(C#N)(C([2H])([2H])[2H])C([2H])([2H])[2H])cc1Nc1ncc(C(F)(F)F)c(NC2CC2)n1` [Compound 48], the IC50 was under 30 nM.
To `CCNc1nc(Nc2cnn3c2CC(F)C3)ncc1C(F)(F)F` (stereo not drawn) [Compound 50] belongs under 30 nM; to `CCNc1nc(Nc2cc(C(C)(C)n3nccn3)nn2C)ncc1C(F)(F)F` [Compound 57], under 30 nM; to `CCNc1nc(Nc2cnn(C3CCC3)c2C#N)ncc1Br` [Compound 58], under 30 nM.
To `Cc1nn(C(C)(C)C#N)cc1Nc1ncc(C(F)(F)F)c(NCC(F)F)n1` [Compound 59] belongs under 30 nM; to `Cc1nn(C(C)(C)C#N)cc1Nc1ncc(Cl)c(OC2CC2)n1` [Compound 60], under 30 nM.
To `CCNc1nc(Nc2cnn3c2CC(n2ccnn2)C3)ncc1C(F)(F)F` (stereo not drawn) [Compound 61] belongs under 30 nM; to `[2H]C([2H])([2H])c1nn(C(C)(C)C#N)cc1Nc1ncc(C(F)(F)F)c(NC)n1` [Compound 62], under 30 nM; to `[2H]C([2H])([2H])Nc1nc(Nc2cn(C(C)(C)C#N)nc2C([2H])([2H])[2H])ncc1C(F)(F)F` [Compound 63], under 30 nM.
As to `COc1nc(Nc2cnn(C3(C)CCNC3=O)c2C)ncc1Br` (stereo not drawn) [Compound 65], the IC50 is under 30 nM.
To `Cc1nn(C(C)(C)C#N)cc1Nc1ncc(Br)c(NC2CC2)n1` [Compound 66] belongs under 30 nM; to `[2H]C([2H])([2H])Nc1nc(Nc2cn(C(C)(C)C#N)nc2C)ncc1C(F)(F)F` [Compound 67], under 30 nM; to `Cn1nc(C(C)(C)n2nccn2)cc1Nc1ncc(C(F)(F)F)c(NC2CC2)n1` [Compound 69], under 30 nM.
To `[2H]C([2H])([2H])n1nc(C(C)(C)n2cccn2)cc1Nc1ncc(C(F)(F)F)c(NCC)n1` [Compound 70] belongs under 30 nM.
`[2H]C([2H])([2H])n1nc(C(C)(C)n2cccn2)cc1Nc1ncc(C(F)(F)F)c(NC2CC2)n1` [Compound 71] came in with an IC50 of under 30 nM.
To `Cc1nn(C(C)(C)C#N)cc1Nc1ncc(Cl)c(NC2CC2)n1` [Compound 72] belongs under 30 nM; to `Cc1nn(C(C)(C)C#N)cc1Nc1ncc(Br)c(NCC(F)F)n1` [Compound 73], under 30 nM; to `[2H]C([2H])([2H])c1nn(C(C#N)(C([2H])([2H])[2H])C([2H])([2H])[2H])cc1Nc1ncc(C(F)(F)F)c(NC([2H])([2H])C([2H])([2H])[2H])n1` [Compound 74], under 30 nM.
To `[2H]C([2H])([2H])n1nc(C(C)(C)n2nccn2)cc1Nc1ncc(Br)c(NCC)n1` [Compound 75] belongs under 30 nM.
To `Cc1nn(C(C)(C)C#N)cc1Nc1ncc(C(F)(F)F)c(NC(CF)CF)n1` [Compound 76] belongs under 30 nM; to `CNc1nc(Nc2cc(C(C)(C)n3nccn3)nn2C2CC2)ncc1C(F)(F)F` [Compound 77], under 30 nM; to `[2H]C([2H])([2H])n1nc(C(C)(C)n2nccn2)cc1Nc1ncc(Br)c(NC2CC2)n1` [Compound 79], under 30 nM.
`[2H]C([2H])([2H])C(C#N)(n1cc(Nc2ncc(C(F)(F)F)c(NC)n2)c(C)n1)C([2H])([2H])[2H]` [Compound 80] yielded an IC50 of under 30 nM.
To `[2H]C([2H])([2H])n1nc(C(C)(C)n2nccn2)cc1Nc1ncc(Br)c(OC2CC2)n1` [Compound 81] belongs under 30 nM.
`[2H]C([2H])([2H])n1nc(C(C)(C)c2ncco2)cc1Nc1ncc(C(F)(F)F)c(NCC)n1` [Compound 82] gave an IC50 of under 30 nM.
On to `[2H]C([2H])([2H])n1nc(Nc2ncc(C(F)(F)F)c(NCC)n2)cc1C(C)(C)c1ncco1` [Compound 83], for which the IC50 was under 30 nM.
To `Cc1nn(C(C)(C)C#N)cc1Nc1ncc(C(F)(F)F)c(NC2(C)CC2)n1` [Compound 84] belongs under 30 nM; to `CCNc1nc(Nc2cn(C(C)(C)c3nncs3)nc2C)ncc1C(F)(F)F` [Compound 85], under 30 nM.
